Laboratory results published in US20150004100A1, “HETEROCYCLIC COMPOUNDS AS IMAGING PROBES OF TAU PATHOLOGY” (GE HEALTHCARE LIMITED, priority 2011, published 2015).
Entries after “also recorded” stand apart in the source; their conditions may differ.

Key:
tau+ NFTs [1] = assay: Tissue binding assay (fluorescence), NFTs in human AD tissue sections; design: key to NFTs (staining): −: No staining; +: weak staining; ++: moderate staining; +++: intense staining; conditions: for NFTs (staining): Table 2, 100 μM, human AD tissue; for Binding to NFTs (in words): high test concentration, AD tissue
Procedure: (§1) Human brain tissue samples from the entorhinal cortex of patients with Alzheimer's disease (AD) and healthy controls were obtained from Tissue Solutions (Tissue Solutions Ltd, Glasgow, UK). Tissue samples were collected after informed written consent, and specimens were dissected at the tissue bank and snap-frozen for cryopreservation at a time interval of between 3 and 18 h after death. The frozen tissue was embedded in TissueTek® (VWR) and sectioned using a Microm HM560 cryostat (Thermo Scientific). Serial 12 μm sections were mounted onto SuperFrost®+ glass slides (VWR) and stored a −70° C.
(§2) The binding of compounds to tau+NFTs and Aβ+ plaques in human AD tissue were evaluated based on fluorescence.
(§3) Briefly, tissue sections were defrosted and fixed in ice-cold 70% ethanol. All tissue sections were rinsed with PBS after fixation and between all subsequent incubation steps. To quench autofluorescence, tissue sections were incubated first with 0.25% KMnO4 (Sigma-Aldrich) in PBS for 12 min, and then with 0.1% […]/0.1% oxalic acid (both reagents from Sigma-Aldrich) in PBS for 1 min. The tissue sections were blocked with 2% BSA in PBS for 10 min, and then incubated with the test compounds at 100 μM concentration for 1 h at RT. […] Finally the tissue sections were rinsed in PBS, and mounted in SlowFade® mounting media (Invitrogen). Images of labelled tissue sections were captured using a Nikon digital camera connected to a Leica microscope and using the NIS Elements D software (Nikon). Images were further processed with the Photoshop® software (Adobe).

Aβ+ plaques [2] = assay: Tissue binding assay (fluorescence), plaques in human AD tissue sections; design: key to Plaques (staining): −: No staining; +: weak staining; ++: moderate staining; +++: intense staining; conditions: for Plaques (staining): Table 2, 100 μM, human AD tissue; for Binding to plaques (in words): high test concentration, AD tissue
Procedure: as §1, §2, §3

[3] = PAMPA (parallel artificial membrane permeability assay); format: in vitro ADME; conditions: 10 μM, 5 h at RT; criterion >−6
Procedure: The PAMPA assay is used to determine how well a compound crosses a cell membrane by measuring its passage through a phosphotidyl choline barrier. A permeability coefficient >−6 indicates high permeability across lipid membranes and is indicative of a compounds ability to cross the blood brain barrier.
A 10 μM solution was incubated on a PDVF membrane coated with a 2% phoshotidyl choline solution for 5 h at RT. Membrane penetration was measured using LC-MS.

[4] = Protein binding assay, human plasma (rapid equilibrium dialysis); format: in vitro ADME; conditions: % bound, criterion <99%
Procedure: (§4) The protein binding assays provide an estimate of free (unbound) fraction of the compound in the blood or brain in vivo. […] The desirable criterion for this assay is <99% of test compound bound.
(§5) Test compounds were first dissolved in DMSO to a concentration of 50 μM. This was followed by incubation in samples of human plasma and rat brain homogenates (final test concentration 1 μM). Binding of compounds to proteins was determined in the samples by rapid equilibrium dialysis after 5 and 30 min of incubation.

[5] = Protein binding assay, rat brain homogenates (rapid equilibrium dialysis); format: in vitro ADME; conditions: rat brain homogenate, % bound, criterion <99%
Procedure: as §4, §5

rat liver microsomes = assay: Liver microsome stability assay, rat; format: in vitro ADME; conditions: 1 μM, 37° C., parent compound remaining, criterion >50%
Procedure: (§6) The liver microsome stability assay provides an estimate of compound stability and rate of metabolism in vivo. The desirable criterion for this assay is >50% parent compound after 30 min.
(§7) A 1 μM compound solution was incubated with rat or human liver microsomes (20 mg/ml) at 37° C. and the amount of parent compound remaining following the incubation was determined after 5 and 30 min of incubation using LC-MS.

human liver microsomes = assay: Liver microsome stability assay, human; format: in vitro ADME; conditions: 1 μM, 37° C., parent compound remaining, criterion >50%
Procedure: as §6, §7

[6] = In vivo cold bio-distribution in rat (brain uptake, LC-MS)
Procedure: All animal studies were in compliance with local rules and regulations. Test compounds were administered by intravenous (i.v) injection through the tail vein of naïve male Wistar rats (50 μg test compound/rat). The animals were sacrificed by dislocation of the neck at 2, 10, 30, 60 min post-injection (p.i). The brain and plasma were collected from each animal. The concentration of test compound was measured in the plasma and brain homogenates using LS-MS, and calculated as % compound/g (% ID/g).

tau+ NFTs [7] = assay: Tissue binding assay (fluorescence), NFTs in human AD tissue sections; design: key to NFTs (staining): −: No staining; +: weak staining; ++: moderate staining; +++: intense staining; conditions: for NFTs (staining): Table 2, human AD tissue
Aβ+ plaques [8] = assay: Tissue binding assay (fluorescence), plaques in human AD tissue sections; design: key to Plaques (staining): −: No staining; +: weak staining; ++: moderate staining; +++: intense staining; conditions: for Plaques (staining): Table 2, human AD tissue
[9] = test system: tau aggregates over Aβ1-42 amyloid; conditions: in vitro, Kudo et al. 2005; cited from earlier work
NFTs and plaques = conditions: literature reports; cited from earlier work
[10] = literature reports; cited from earlier work
[11] = lower test concentrations, AD tissue

| Compound | NFTs (staining) (tau+ NFTs [1]) | Binding to NFTs (in words) (tau+ NFTs [1]) | Plaques (staining) (Aβ+ plaques [2]) | Binding to plaques (in words) (Aβ+ plaques [2]) | PAMPA Log Pe [3] | fraction unbound at 1 μM [4] | fraction unbound at 1 μM [5] | Liver stability Rat (% PCP) 5 min (rat liver microsomes) [% PCP] | Liver stability Rat (% PCP) 30 min (rat liver microsomes) [% PCP] | Liver stability Human (% PCP) 5 min (human liver microsomes) [% PCP] | Liver stability Human (% PCP) 30 min (human liver microsomes) [% PCP] | NFTs (staining) (tau+ NFTs [7]; 1 μM) | NFTs (staining) (tau+ NFTs [7]; 10 μM) | Plaques (staining) (Aβ+ plaques [8]; 1 μM) | Plaques (staining) (Aβ+ plaques [8]; 10 μM) | other results |
| --- | --- | --- | --- | --- | --- | --- | --- | --- | --- | --- | --- | --- | --- | --- | --- | --- |
| CC(C)NC(=O)c1nn(-c2ccc(OCCF)cc2)c(=O)c2c(N)scc12 [Compound 38] | +++ | binds to both NFTs (A) and plaques (B); also recorded: bind to both NFTs and plaques | ++ | binds to both NFTs (A) and plaques (B); also recorded: bind to both NFTs and plaques | −5.02 | 0.0642 | 0.428 | 81.7 | 56.4 | 87.2 | 74.4 | + | ++ | − | + | tissue uptake at 2 min ([6]; male, Wistar, rat, brain, iv, 50 μg/rat, 2 min p.i.): > 0.2 %ID/g; tissue uptake at 10 min ([6]; male, Wistar, rat, brain, iv, 50 μg/rat, 10 min p.i.): 0.081 %ID/g; tissue uptake at 30 min ([6]; male, Wistar, rat, brain, iv, 50 μg/rat, 30 min p.i.): 0.021 %ID/g; tissue uptake at 60 min ([6]; male, Wistar, rat, brain, iv, 50 μg/rat, 60 min p.i.): 0.011 %ID/g; Clearance ratio 2:30 min ([6]; rat brain, 2 min vs 30 min p.i.): 13.3; Brain uptake and clearance (in words) ([6]; rat, from clearance ratio): rapid brain uptake followed by rapid clearance; Brain uptake % ID/g p.i ([6]; rat, i.v., 2 min p.i.): 0.28 % ID/g; Binding preference for NFTs (in words) (tau+ NFTs [7]; [11]): binds preferentially to NFTs; also recorded: bind with a preference for NFTs |
| CNc1ccc(-c2ccc3ccccc3n2)cc1 [BF-158] |  |  |  |  |  |  |  |  |  |  |  |  |  |  |  | Selectivity for tau aggregates over Aβ1-42 amyloid [9]: threefold |
| [11CH3]Nc1ccc(-c2nc3ccc(O)cc3s2)cc1 [PiB, Pittsburgh compound B, reference compound] | +++ | detected to both NFTs and plaques | +++ | detected to both NFTs and plaques |  |  |  |  |  |  |  | − | + | ++ | ++ | Binding to plaques (in words) (Aβ+ plaques [8]; [11]): only bound to plaques; Reported binding to NFTs / plaques (in words) (NFTs and plaques): bind with a preference to Aβ+ plaques; Reported brain uptake in vivo (in words) [10]: high brain uptake in vivo |
| CC(C)NC(=O)c1nn(-c2ccc(Cl)cc2)c(=O)c2c(N)scc12 [ATPZ, reference compound] | +++ |  | + |  | −5.24 | 0.0098 | 0.0906 | 97.06 | 70.19 | 98.9 | 68.29 | + | ++ | − | − | Reported brain uptake in vivo (in words) [10]: high brain uptake in vivo |
| Nc1ccc(-c2ccc3ccccc3n2)cc1 [BF-170] |  |  |  |  |  |  |  |  |  |  |  |  |  |  |  | Selectivity for tau aggregates over Aβ1-42 amyloid [9]: threefold |
| CC(C)NC(=O)c1nn(-c2ccc(F)cc2)c(=O)c2c(N)scc12 [Compound 14] | + |  | + |  | −4.89 | 0.0522 | 0.383 | 92.8 | 64.0 | 92.1 | 61.3 | − | − | − | − |  |
| CC(=C(C#N)C#N)c1ccc2cc(N(C)CCF)ccc2c1 [FDDNP, 2-(1-(2-(N-(2-fluoroethy)-N-methylamino)-naphthalene-6-yl)-ethylidende)-malononitrile, reference compound] | +++ | detected to both NFTs and plaques | +++ | detected to both NFTs and plaques |  |  |  |  |  |  |  | + | ++ | + | ++ | Reported binding to NFTs / plaques (in words) (NFTs and plaques): binds to both NFTs and plaques |
